The source of these data is patent US20240101570A1 (AMGEN INC., priority 2020, published 2024).

Structures are written as SMILES.

One assay deals with HCT116 MTAP null cells. Put plainly: HCT116 MTAP null cell proliferation / viability (CellTiter-Glo, 6 days). In kind it is cell-based. Particulars: HCT116-MTAP null, 144 h, HCT116 MTAP null cells, 6 days, CellTiter-Glo; read-out: HCT-116 MTAP null IC50. Here is the method:
(§1) HCT116 MTAP null and WT cells were seeded in 96-well tissue culture plates in RPMI 1640 media+10% fetal bovine serum. Plates were incubated overnight at 37° C. and 5% CO2. Cells were then treated with an 8- or 9-point serial dilution of compound, using a top concentration of 1, or 10 μM, 1:3 serial dilution steps and, a DMSO-only control. Cells were incubated in the presence of drug for 6 days. Effects on cell viability were measured with the CellTiter-Glo® Luminescent Cell Viability Assay (Promega) per manufacturer's recommendation. Assay plates were read on an EnVision™ Multilabel Reader using the Ultra-Sensitive luminescence module. IC50 values were calculated with GraphPad Prism v 5.01 using symmetrical sigmoidal dose-response least squares fit with Hill slope fixed to −1 and top constrain to 100% or GeneData Screener using a 4-parameter logistic model to fit dose response curves.
(§2) Alternatively, compounds could be assayed with a 384 well plate format:
(§3) Compounds were pre-spotted into 384 well plates with a 22-point serial dilution of compound, using a top concentration of 10 or 50 μM, 1:2 serial dilution steps and, a DMSO-only control. HCT116 MTAP null and WT cells were then seeded as above and after 6 days effects on cell viability were measured with the CellTiter-Glo® Luminescent Cell Viability Assay (Promega). Assay plates were read as above and IC50 values were calculated with GeneData Screener using a 4-parameter logistic model to fit dose response curves. The reported IC50 represents the value where the curve transits 50% of control.
For orientation: In ATP-based viability assays light output follows the ATP content of the culture.
The term IC50 denotes the concentration needed to halve the response being measured. For `CCN(Cc1ccc(Br)nn1)C(=O)c1ccc2nc(N)c3c(c2c1)COC3` [Example 708, 4-amino-N-((6-bromo-3-pyridazinyl)methyl)-N-ethyl-1,3-dihydrofuro[3,4-c]quinoline-8-carboxamide], the IC50 came out at 153 nM.
The same measure, in the same setting: next, `C[C@H]1OCc2c1c(N)nc1cnc(C(=O)N(Cc3ccc(C(F)(F)F)cn3)C34CC(C3)C4)cc21` [Example 311, (3R)-4-amino-N-(bicyclo[1.1.1]pentan-1-yl)-3-methyl-N-((5-(trifluoromethyl)-2-pyridinyl)methyl)-1,3-dihydrofuro[3,4-c][1,7]naphthyridine-8-carboxamide]: 56 nM; `CC(C#N)CN(Cc1ccc(C(F)(F)F)cn1)C(=O)c1ccc2nc(N)c3c(c2c1)COC3C` (centres unmarked) [Example 928, 4-amino-N-(2-cyanopropyl)-3-methyl-N-((5-(trifluoromethyl)pyridin-2-yl)methyl)-1,3-dihydrofuro[3,4-c]quinoline-8-carboxamide]: 39 nM.
With `CC1OCc2c1c(N)nc1ccc(C(=O)N(Cc3ccc(C(F)(F)F)cn3)C3CCCC(O)C3)cc21` (centres unmarked) [Example 921, 4-amino-N-(3-hydroxycyclohexyl)-3-methyl-N-((5-(trifluoromethyl)pyridin-2-yl)methyl)-1,3-dihydrofuro[3,4-c]quinoline-8-carboxamide], the IC50 came out at 93 nM.
Same read-out and setting: next, `CC(C)CN(Cc1ccc(C(F)(F)F)cn1)C(=O)c1ccc2nc(N)c3c(c2c1)COC3C` (centres unmarked) [Example 919, 4-amino-N-isobutyl-3-methyl-N-((5-(trifluoromethyl)pyridin-2-yl)methyl)-1,3-dihydrofuro[3,4-c]quinoline-8-carboxamide]: 25 nM; `CC(O)CN(Cc1ccc(C(F)(F)F)cn1)C(=O)c1ccc2nc(N)c3c(c2c1)COC3C` (centres unmarked) [Example 923, 4-amino-N-(2-hydroxypropyl)-3-methyl-N-((5-(trifluoromethyl)pyridin-2-yl)methyl)-1,3-dihydrofuro[3,4-c]quinoline-8-carboxamide]: 56 nM.
As to `CC1OCc2c1c(N)nc1ccc(C(=O)N(Cc3ccc(C#N)cn3)Cc3cnc(N)s3)cc21` (centres unmarked) [Example 914, 4-amino-N-((2-aminothiazol-5-yl)methyl)-N-((5-cyanopyridin-2-yl)methyl)-3-methyl-1,3-dihydrofuro[3,4-c]quinoline-8-carboxamide], the IC50 came to 200 nM.
Turning to `CC1OCc2c1c(N)nc1ccc(C(=O)N(Cc3ccc(C(F)(F)F)cn3)C[C@H]3CC[C@H](O)CC3)cc21` (some centres unmarked) [Example 893, 4-amino-N-(((1r,4r)-4-hydroxycyclohexyl)methyl)-3-methyl-N-((5-(trifluoromethyl)pyridin-2-yl)methyl)-1,3-dihydrofuro[3,4-c]quinoline-8-carboxamide], the IC50 was determined as 41 nM.
Same read-out and setting: for `CC(CO)CN(Cc1ccc(C(F)(F)F)cn1)C(=O)c1ccc2nc(N)c3c(c2c1)COC3C` (centres unmarked) [Example 924, 4-amino-N-(3-hydroxy-2-methylpropyl)-3-methyl-N-((5-(trifluoromethyl)pyridin-2-yl)methyl)-1,3-dihydrofuro[3,4-c]quinoline-8-carboxamide] the value was 43 nM.
On the same count and under the same terms, for `CC1OCc2c1c(N)nc1ccc(C(=O)N(CCC3CC(O)C3)Cc3ccc(C(F)(F)F)cn3)cc21` (centres unmarked) [Example 922, 4-amino-N-(2-(3-hydroxycyclobutyl)ethyl)-3-methyl-N-((5-(trifluoromethyl)pyridin-2-yl)methyl)-1,3-dihydrofuro[3,4-c]quinoline-8-carboxamide] the value was 48 nM.
The same measure, in the same setting: next, `CC1OCc2c1c(N)nc1ccc(C(=O)N(Cc3ccc(C#N)cn3)C[C@H]3CC[C@H](O)CC3)cc21` (some centres unmarked) [Example 894, 4-amino-N-((5-cyanopyridin-2-yl)methyl)-N-(((1r,4r)-4-hydroxycyclohexyl)methyl)-3-methyl-1,3-dihydrofuro[3,4-c]quinoline-8-carboxamide]: 180 nM; `CC1OCc2c1c(N)nc1ccc(C(=O)N(Cc3ccc(C(F)(F)F)cn3)Cc3ncn(C)n3)cc21` (centres unmarked) [Example 926, 4-amino-3-methyl-N-((1-methyl-1H-1,2,4-triazol-3-yl)methyl)-N-((5-(trifluoromethyl)pyridin-2-yl)methyl)-1,3-dihydrofuro[3,4-c]quinoline-8-carboxamide]: 30 nM; `CC1OCc2c1c(N)nc1ccc(C(=O)N(Cc3ccc(C(F)(F)F)cn3)CC3CCOC3)cc21` (centres unmarked) [Example 927, 4-amino-3-methyl-N-((tetrahydrofuran-3-yl)methyl)-N-((5-(trifluoromethyl)pyridin-2-yl)methyl)-1,3-dihydrofuro[3,4-c]quinoline-8-carboxamide]: 69 nM.
Take `CC1OCc2c1c(N)nc1ccc(C(=O)N(Cc3ccc(C(F)(F)F)cn3)C3CC3N)cc21` (centres unmarked) [Example 906, 4-amino-N-(2-aminocyclopropyl)-3-methyl-N-((5-(trifluoromethyl)pyridin-2-yl)methyl)-1,3-dihydrofuro[3,4-c]quinoline-8-carboxamide]: the IC50 was 790 nM.
Same read-out and setting: next, `CC(C)N(Cc1ccc(Br)nn1)C(=O)c1ccc2nc(N)c3c(c2c1)COC3` [Example 335, 4-amino-N-((6-bromo-3-pyridazinyl)methyl)-N-(2-propanyl)-1,3-dihydrofuro[3,4-c]quinoline-8-carboxamide]: 361 nM.
Regarding `CC(C)(C)CN(Cc1ccc(C(F)(F)F)cn1)C(=O)c1ccc2nc(N)c3c(c2c1)COC3` [Example 342, 4-amino-N-(2,2-dimethylpropyl)-N-((5-(trifluoromethyl)-2-pyridinyl)methyl)-1,3-dihydrofuro[3,4-c]quinoline-8-carboxamide], the IC50 was found to be 1310 nM.
On the same count and under the same terms, next, `CC1OCc2c1c(N)nc1ccc(C(=O)N(Cc3ccc(C(F)(F)F)cn3)CC(O)C(F)(F)F)cc21` (centres unmarked) [Example 925, 4-amino-3-methyl-N-(3,3,3-trifluoro-2-hydroxypropyl)-N-((5-(trifluoromethyl)pyridin-2-yl)methyl)-1,3-dihydrofuro[3,4-c]quinoline-8-carboxamide]: 35 nM; `CC1OCc2c1c(N)nc1ccc(C(=O)N(CC3=CCCOC3)Cc3ccc(C#N)cn3)cc21` (centres unmarked) [Example 912, 4-amino-N-((5-cyanopyridin-2-yl)methyl)-N-((5,6-dihydro-2H-pyran-3-yl)methyl)-3-methyl-1,3-dihydrofuro[3,4-c]quinoline-8-carboxamide]: 140 nM; `CC1OCc2c1c(N)nc1ccc(C(=O)N(Cc3ccc(C(F)(F)F)cn3)C(C)C(C)O)cc21` (centres unmarked) [Example 920, 4-amino-N-(3-hydroxybutan-2-yl)-3-methyl-N-((5-(trifluoromethyl)pyridin-2-yl)methyl)-1,3-dihydrofuro[3,4-c]quinoline-8-carboxamide]: 76 nM.
Still for that read-out and setting: for `CC1(N(Cc2ccc(C(F)(F)F)cn2)C(=O)c2cc3c4c(c(N)nc3cn2)COC4)CC1` [Example 699, 4-amino-N-(1-methylcyclopropyl)-N-((5-(trifluoromethyl)-2-pyridinyl)methyl)-1,3-dihydrofuro[3,4-c][1,7]naphthyridine-8-carboxamide] the value was 249 nM.
For the molecule `CC1OCc2c1c(N)nc1ccc(C(=O)N(Cc3ccc(C(F)(F)F)cn3)C(C)C3CCOCC3)cc21` (centres unmarked) [Example 891, 4-amino-3-methyl-N-(1-(tetrahydro-2H-pyran-4-yl)ethyl)-N-((5-(trifluoromethyl)pyridin-2-yl)methyl)-1,3-dihydrofuro[3,4-c]quinoline-8-carboxamide], the IC50 is 40 nM.

A further assay concerns HCT116 WT cells. Put plainly: HCT116 WT cell proliferation / viability (CellTiter-Glo, 6 days). To be noted: Homo sapiens, HCT-116, 144 h, HCT116 WT cells, 6 days, CellTiter-Glo; read-out: HCT-116 WT IC50. In kind it is cell-based. How it is done:
as §1, §2, §3
For `CCN(Cc1ccc(Br)nn1)C(=O)c1ccc2nc(N)c3c(c2c1)COC3` [Example 708, 4-amino-N-((6-bromo-3-pyridazinyl)methyl)-N-ethyl-1,3-dihydrofuro[3,4-c]quinoline-8-carboxamide], the IC50 was 8220 nM.
Still for that read-out and setting: next, `C[C@H]1OCc2c1c(N)nc1cnc(C(=O)N(Cc3ccc(C(F)(F)F)cn3)C34CC(C3)C4)cc21` [Example 311, (3R)-4-amino-N-(bicyclo[1.1.1]pentan-1-yl)-3-methyl-N-((5-(trifluoromethyl)-2-pyridinyl)methyl)-1,3-dihydrofuro[3,4-c][1,7]naphthyridine-8-carboxamide]: 2200 nM.
